According to patent US20230159538A1, “PYRROLIDINE-PYRAZOLES AS PYRUVATE KINASE ACTIVATORS” (Global Blood Therapeutics, Inc., priority 2020, published 2023):

Target: T1, Human pyruvate kinase R (PKR) (Homo sapiens, UniProt P30613)
T1 construct: Human pyruvate kinase R (PKR), residues 14-574; 6x-His (N, cleaved yes); 8x-Arg (N, cleaved yes); SUMO (N, cleaved yes); host or cells: E. coli
Test: Biochemical assay for activation of pyruvate kinase R (Kinase-Glo luminescence, ATP generation)
Details: for AC50: 0.1 nM PKR, 2 mM FBP, 0.3 mM ADP, 0.1 mM PEP; for PKR % activation: maximal activation level relative to the activation level achieved by AG-348 @ 10 μM
Procedure: Proteins were translated as fusions with 6×-His, 8×-Arg, and SUMO at the N-terminus. […] All proteins were cloned, expressed in E. coli, and purified using similar protocols. Cells were grown at 30° C. in Luria-Bertani broth supplemented with 0.4% glucose to OD600=0.8 and induced with 0.4 mM IPTG at 16° C. for 18 hours. Cells were harvested by centrifugation, resuspended in 50 mM potassium phosphate pH 8.0, 500 mM NaCl, 25 mM imidazole pH 8.0, and 3 mM β-mercaptoethanol. Cells were lysed using a LM20 microfluidizer from Microfluidics (Westwood, Mass.). The crude lysate was immediately supplemented with 0.2 mM phenylmethylsulfonyl fluoride (PMSF) and centrifuged at 20,000 g for 20 minutes. The soluble fraction was subsequently incubated with 2 mL Ni-NTA (GE Healthcare) per 1,000 ODs for 1 hour at 4° C. Following incubation with the Ni-NTA resin, lysate was removed by pelleting resin at 2,500 g for 3 minutes and washed 3 times with 9 bed volumes of 50 mM potassium phosphate pH 8.0, 500 mM NaCl, 25 mM imidazole, and 3 mM β-mercaptoethanol. Following the batch wash Ni-NTA resin was loaded onto a gravity column and His-tagged protein was eluted with 6 bed volumes of 10 mM Tris/HCl pH 8.0, 200 mM NaCl, 500 mM imidazole, and 3 mM β-mercaptoethanol. Eluted protein was dialyzed overnight against 10 mM Tris/HCl pH 8.0, 200 mM NaCl, and 1 mM DTT and the 6×-His-8×-Arg-SUMO-tag was cleaved using a 20:1 molar ratio of protein:3C protease. The protein was purified by anion exchange chromatography on a HiTrapQ or MonoQ 10/100 GL column (GE Healthcare) via a linear NaCl gradient and twice by size exclusion chromatography using a Superdex S200 26/60 column (GE Healthcare) run in 10 mM Tris/HCl pH 8.0, 200 mM NaCl, 10 mM MgCl2, 1 mM DTT. Proteins were concentrated to ˜12 mg/mL for crystallization and flash frozen for storage.
Biochemical Assay for Activation of Pyruvate Kinase R
Activation of pyruvate kinase R (PKR) and pyruvate kinase M2 (PKM2) were measured using a luminescence based measurement of ATP generation and the Kinase-Glo luminescent kinase reagent kit.

T1 sequence (P30613 14-574): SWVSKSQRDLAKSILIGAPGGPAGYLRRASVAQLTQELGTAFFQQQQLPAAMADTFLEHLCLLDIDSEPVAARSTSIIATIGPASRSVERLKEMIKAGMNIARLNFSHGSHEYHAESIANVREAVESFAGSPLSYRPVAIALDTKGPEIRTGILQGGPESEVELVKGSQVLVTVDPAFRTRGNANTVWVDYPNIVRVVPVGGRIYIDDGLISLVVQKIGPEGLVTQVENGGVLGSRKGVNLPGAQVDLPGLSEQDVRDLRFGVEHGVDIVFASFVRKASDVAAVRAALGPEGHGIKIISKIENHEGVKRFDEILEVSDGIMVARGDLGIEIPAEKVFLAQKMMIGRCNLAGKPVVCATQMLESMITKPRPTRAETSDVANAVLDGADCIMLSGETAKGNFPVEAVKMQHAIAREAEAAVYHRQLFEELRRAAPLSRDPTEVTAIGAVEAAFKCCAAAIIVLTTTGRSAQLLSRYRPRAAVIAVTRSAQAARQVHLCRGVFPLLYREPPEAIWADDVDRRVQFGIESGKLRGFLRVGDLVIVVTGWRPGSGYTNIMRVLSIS

| AC50 | PKR % activation | Structure (SMILES) |
| --- | --- | --- |
| 800 nM | 120% | O=C1CN([C@@H](C(=O)N2Cc3cn(S(=O)(=O)c4ccc(OC(F)F)cc4)nc3C2)c2ccccc2)C1 (single isomer, unassigned) [Compound 92, 1-[(1R)-2-{2-[4-(difluoromethoxy)benzenesulfonyl]-2H,4H,5H,6H-pyrrolo[3,4-c]pyrazol-5-yl}-2-oxo-1-phenylethyl]azetidin-3-one or 1-[(1S)-2-{2-[4-(difluoromethoxy)benzenesulfonyl]-2H,4H,5H,6H-pyrrolo[3,4-c]pyrazol-5-yl}-2-oxo-1-phenylethyl]azetidin-3-one] |
| 5550 nM | 84% | O=C1CN([C@@H](C(=O)N2Cc3cn(S(=O)(=O)c4ccc(OC(F)F)cc4)nc3C2)c2ccccc2)C1 (single isomer, unassigned) [Compound 93, 1-[(1R)-2-{2-[4-(difluoromethoxy)benzenesulfonyl]-2H,4H,5H,6H-pyrrolo[3,4-c]pyrazol-5-yl}-2-oxo-1-phenylethyl]azetidin-3-one or 1-[(1S)-2-{2-[4-(difluoromethoxy)benzenesulfonyl]-2H,4H,5H,6H-pyrrolo[3,4-c]pyrazol-5-yl}-2-oxo-1-phenylethyl]azetidin-3-one] |
| 190 nM | 92% | O=C([C@@H](c1ccccc1)N1CCC1=O)N1Cc2cn(S(=O)(=O)c3ccc(OC(F)F)cc3)nc2C1 (single isomer, unassigned) [Compound 99, 1-[(1R)-2-{2[4-(difluoromethoxy)benzenesulfonyl]-2H,4H,5H,6H-pyrrolo[3,4-c]pyrazol-5-yl}-2-oxo-1-phenylethyl]azetidin-2-one or 1-[(1S)-2-{2-[4-(difluoromethoxy)benzenesulfonyl]-2H,4H,5H,6H-pyrrolo[3,4-c]pyrazol-5-yl}-2-oxo-1-phenylethyl]azetidin-2-one] |
| > 10000 nM | 0% | O=C([C@@H](c1ccccc1)N1CCC1=O)N1Cc2cn(S(=O)(=O)c3ccc(OC(F)F)cc3)nc2C1 (single isomer, unassigned) [Compound 100, 1-[(1R)-2-{2-[4-(difluoromethoxy)benzenesulfonyl]-2H,4H,5H,6H-pyrrolo[3,4-c]pyrazol-5-yl}-2-oxo-1-phenylethyl]azetidin-2-one or 1-[(1S)-2-{2-[4-(difluoromethoxy)benzenesulfonyl]-2H,4H,5H,6H-pyrrolo[3,4-c]pyrazol-5-yl}-2-oxo-1-phenylethyl]azetidin-2-one] |
| 12 nM | 81% | O=C([C@H](CO)c1ncccc1F)N1Cc2cn(S(=O)(=O)c3ccc4ncccc4c3)nc2C1 (single isomer, unassigned) [Compound 102, (2S)-2-(3-fluoropyridin-2-yl)-3-hydroxy-1-[2-(quinoline-6-sulfonyl)-2H,4H,5H,6H-pyrrolo[3,4-c]pyrazol-5-yl]propan-1-one or (2R)-2-(3-fluoropyridin-2-yl)-3-hydroxy-1-[2-(quinoline-6-sulfonyl)-2H,4H,5H,6H-pyrrolo[3,4-c]pyrazol-5-yl]propan-1-one] |
| 220 nM | 41% | O=C([C@H](CO)c1ncccc1F)N1Cc2cn(S(=O)(=O)c3ccc4ncccc4c3)nc2C1 (single isomer, unassigned) [Compound 103, (2S)-2-(3-fluoropyridin-2-yl)-3-hydroxy-1-[2-(quinoline-6-sulfonyl)-2H,4H,5H,6H-pyrrolo[3,4-c]pyrazol-5-yl]propan-1-one or (2R)-2-(3-fluoropyridin-2-yl)-3-hydroxy-1-[2-(quinoline-6-sulfonyl)-2H,4H,5H,6H-pyrrolo[3,4-c]pyrazol-5-yl]propan-1-one] |
| > 10000 nM | 0% | O=C([C@@H](c1ccccc1)N1CCOCC1)N1Cc2cn(S(=O)(=O)c3ccc(OC(F)F)cc3)nc2C1 (single isomer, unassigned) [Compound 107, (2R)-1-{2-[4-(difluoromethoxy)benzenesulfonyl]-2H,4H,5H,6H-pyrrolo[3,4-c]pyrazol-5-yl}-2-(morpholin-4-yl)-2-phenylethan-1-one or (2S)-1-{2-[4-(difluoromethoxy)benzenesulfonyl]-2H,4H,5H,6H-pyrrolo[3,4-c]pyrazol-5-yl}-2-(morpholin-4-yl)-2-phenylethan-1-one] |
| > 10000 nM | 0% | O=C([C@@H](c1ccccc1)N1CCOCC1)N1Cc2cn(S(=O)(=O)c3ccc(OC(F)F)cc3)nc2C1 (single isomer, unassigned) [Compound 108, (2R)-1-{2-[4-(difluoromethoxy)benzenesulfonyl]-2H,4H,5H,6H-pyrrolo[3,4-c]pyrazol-5-yl}-2-(morpholin-4-yl)-2-phenylethan-1-one or (2S)-1-{2-[4-(difluoromethoxy)benzenesulfonyl]-2H,4H,5H,6H-pyrrolo[3,4-c]pyrazol-5-yl}-2-(morpholin-4-yl)-2-phenylethan-1-one] |
| 167 nM |  | NCC(C(=O)N1Cc2cn(S(=O)(=O)c3ccc4ncsc4c3)nc2C1)c1ccccc1 (centres unmarked) [Compound 13, 3-amino-1-[2-(1,3-benzothiazole-6-sulfonyl)-2H,4H,5H,6H-pyrrolo[3,4-c]pyrazol-5-yl]-2-phenylpropan-1-one] |
| 156 nM |  | N[C@@H](C(=O)N1Cc2cn(S(=O)(=O)c3ccc4c(c3)NCCO4)nc2C1)c1ccccc1 [Compound 16, (2R)-2-amino-1-[2-(3,4-dihydro-2H-1,4-benzoxazine-6-sulfonyl)-2H,4H,5H,6H-pyrrolo[3,4-c]pyrazol-5-yl]-2-phenylethan-1-one] |
| 83 nM |  | O=C(N1Cc2cn(S(=O)(=O)c3ccc4ncsc4c3)nc2C1)C1(c2ccccc2)CCOC1 (centres unmarked) [Compound 18, 6-{[5-(3-phenyloxolane-3-carbonyl)-2H,4H,5H,6H-pyrrolo[3,4-c]pyrazol-2-yl]sulfonyl}-1,3-benzothiazole] |
| 209 nM |  | O=C(N1Cc2cn(S(=O)(=O)c3ccc4ncsc4c3)nc2C1)C1(c2ccccc2)COCCN1 (centres unmarked) [Compound 21, 6-{[5-(3-phenylmorpholine-3-carbonyl)-2H,4H,5H,6H-pyrrolo[3,4-c]pyrazol-2-yl]sulfonyl}-1,3-benzothiazole] |
| 13 nM |  | N[C@@H](C(=O)N1Cc2cn(S(=O)(=O)c3ccc4ncsc4c3)nc2C1)c1ccc(F)cc1 [Compound 28, (2R)-2-amino-1-[2-(1,3-benzothiazole-6-sulfonyl)-2H,4H,5H,6H-pyrrolo[3,4-c]pyrazol-5-yl]-2-(4-fluorophenyl)ethan-1-one] |
| 371 nM |  | N[C@@H](C(=O)N1Cc2cn(S(=O)(=O)c3ccc(OC(F)F)cc3)nc2C1)c1cccc(OC(F)(F)F)c1 [Compound 30, (2R)-2-amino-1-{2-[4-(difluoromethoxy)benzenesulfonyl]-2H,4H,5H,6H-pyrrolo[3,4-c]pyrazol-5-yl}-2-[3-(trifluoromethoxy)phenyl]ethan-1-one] |
| 130 nM |  | CC(C)(O)[C@H](C(=O)N1Cc2cn(S(=O)(=O)c3ccc4occc4c3)nc2C1)c1ccccc1 [Compound 33, (2R)-1-[2-(1-benzofuran-5-sulfonyl)-2H,4H,5H,6H-pyrrolo[3,4-c]pyrazol-5-yl]-3-hydroxy-3-methyl-2-phenylbutan-1-one] |
| 210 nM |  | CC(C)(O)[C@@H](C(=O)N1Cc2cn(S(=O)(=O)c3ccc4occc4c3)nc2C1)c1ccccc1 [Compound 34, (2S)-1-[2-(1-benzofuran-5-sulfonyl)-2H,4H,5H,6H-pyrrolo[3,4-c]pyrazol-5-yl]-3-hydroxy-3-methyl-2-phenylbutan-1-one] |
| 270 nM |  | N[C@H](C(=O)N1Cc2cn(S(=O)(=O)c3ccc4ncsc4c3)nc2C1)c1ccccc1F [Compound 38, (2S)-2-amino-1-[2-(1,3-benzothiazole-6-sulfonyl)-2H,4H,5H,6H-pyrrolo[3,4-c]pyrazol-5-yl]-2-(2-fluorophenyl)ethan-1-one] |

| Structure (SMILES) | AC50 | PKR % activation |
| --- | --- | --- |
| C[C@@H](O)[C@H](C(=O)N1Cc2cn(S(=O)(=O)c3ccc4ncsc4c3)nc2C1)c1ccccc1 [Compound 4] | 1810 nM | 100% |
| C[C@@H](O)[C@H](C(=O)N1Cc2cn(S(=O)(=O)c3ccc4ncsc4c3)nc2C1)c1ccccc1 [Compound 6] | 2530 nM | 150% |
| C[C@@H](O)[C@H](C(=O)N1Cc2cn(S(=O)(=O)c3ccc(OC(F)F)cc3)nc2C1)c1ccccc1 [Compound 9] | 147 nM | 131% |
| C[C@@H](O)[C@H](C(=O)N1Cc2cn(S(=O)(=O)c3ccc(OC(F)F)cc3)nc2C1)c1ccccc1 [Compound 10] | 455 nM | 165% |
| C[C@@H](O)[C@H](C(=O)N1Cc2cn(S(=O)(=O)c3ccc(OC(F)F)cc3)nc2C1)c1ccccc1 [Compound 11] | 7270 nM | 164% |
